Read-outs that look alike come from different tables or passages of the source.
Key:
[1] = cited from earlier work
[2] = tested on: non-small cell lung carcinoma (A549); assay: In vitro antiproliferative activity, SRB test, A549; type: cell-based, human; conditions: A549, 72 h incubation, average of three determinations
Method: (§1) The in vitro antiproliferative activity against three human tumor cell lines, namely, non-small cell lung carcinoma (A549) (ATCC, Rockville, MD, USA), […] human ductal breast epithelial tumor cells (T47D) (ATCC, Rockville, MD, USA) and colon cancer cells (LOVO) (ATCC, Rockville, MD, USA), and normal murine embryonic fibroblast cells (BALB/3T3) (ATCC, Rockville, MD, USA), was assessed.
(§2) Cells were plated in 96-well sterile plates (Sarstedt, Costar) at a density of 10^4 cells per well (in 100 μL of culture medium) and incubated for 24 h. The tested compound was added in final concentrations ranging from 0.1 to 100 μg mL^−1, and the incubation was continued for an additional 72 h. The results of in vitro cytotoxic activity are expressed as an IC50 (the dose of compound (in μM) that inhibits proliferation rate of tumor cells by 50%) value compared to the untreated control cells. IC50 values are expressed as the averages of three independently reproduced experiments. The details of this technique were described by Skehan. The tests of the antiproliferative activity in vitro against both cell lines were performed with the SRB (sulforhodamine B) test using an automated microplate reader (Synergy H4 photometer, BioTek Instruments Inc., Winooski, VT, USA). Moreover, in vitro toxicity against normal murine fibroblast Balb3T3 cells was assessed.

[3] = tested on: colon cancer cells (LOVO); assay: In vitro antiproliferative activity, SRB test, LoVo; type: cell-based, human; conditions: 72 h incubation, average of three determinations
Method: as §1, §2

[4] = tested on: cisplatin-resistant human ductal breast epithelial tumor cells (T47D); assay: In vitro antiproliferative activity, SRB test, T47D; type: cell-based; conditions: 72 h incubation, average of three determinations
Method: as §1, §2

[5] = tested on: normal murine embryonic fibroblast cells (BALB/3T3); assay: In vitro toxicity against normal fibroblasts, SRB test, BALB/3T3; type: cell-based; conditions: BALB/3T3 normal cells, 72 h incubation, average of three determinations
Method: as §2, with “The results of in vitro cytotoxic activity are expressed as an IC50 (the dose of compound (in μM) that inhibits proliferation rate of tumor cells by 50%) value compared to the untreated control cells.” left out

[6] = tested on: human ovarian carcinoma cell lines resistant to cisplatin (A2780R); set-up: method as in PMID 19783310; conditions: read-out: in vitro activity against A2780R; cited from earlier work
[7] = Partition coefficient (logP), shake-flask method; type: physicochemical; conditions: n-octanol / aqueous 0.9% NaCl, UV-Vis
Method: The lipophilicity (logP) of the platinum(II) compounds was determined using the shake–flask method. At first, aqueous (0.9% w/v) sodium chloride and organic (n–octanol) phases were saturated for 1 week. […] An equal volume of immiscible solvent was added, and the solutions were mixed mechanically in plastic tubes for 30 min. Samples were centrifuged (6000 rpm, 15 min). After separation, the phases were analyzed by UV–Vis spectroscopy to determine the amount of the compound in each phase. The absorption values before and after shaking were compared, and based on the Lambert–Beer law, the partition coefficient in both phases for each compound was calculated to determine the logP values. The procedures were repeated threefold.

Molecule	logP ([1]; symmetrical malonato complexes, previous work)	log P ([1]; literature data for platinum(II) drugs)	IC50 [2] [µM]	IC50 [3] [µM]	IC50 [4] [µM]	IC50 [5] [µM]	IC50 [6] [µM]	log P [7]
CC(C)(C)c1cc(C(C)(C)C)n2ncnc2n1.CC(C)(C)c1cc(C(C)(C)C)n2ncnc2n1.O=C([O-])CC(=O)[O-].[Pt+2] [[Pt(mal)(dbtp)2]]	2.07							
N.N.O=C([O-])C1(C(=O)[O-])CCC1.[Pt+2] [carboplatin]		−2.30						
N.N.[Cl][Pt][Cl] [cisplatin, reference compound]			9 ± 1.1	0.84 ± 0.3	3.11 ± 1.2	3.2 ± 1.5	20.4	
(Dimethylsulfoxide-κS)(5,7-ditertbutyl-1,2,4-triazolo[1,5-a]pyrimidine-κN(3))(cyclobutane-1,1- dicarboxylato-κ^2O,O′))platinum(II) monoaqua hydrate [Complex 3]			5 ± 0.9	20 ± 2.8	6.6 ± 4.8	10.2 ± 6.2		−1.69
(Dimethylsulfoxide-κS)(5,7-ditertbutyl-1,2,4-triazolo[1,5-a]pyrimidine-κN(3))(malonato-κ^2O,O′) platinum(II) [Complex 1]			16.3 ± 9.9	27.9 ± 1	17.1 ± 10.5	30.2 ± 22.6		−1.58
(Dimethylsulfoxide-κS)(7-isobutyl-5-methyl-1,2,4-triazolo[1,5-a]pyrimidine-κN(3))(cyclo- butane-1,1-dicarboxylato-κ^2O,O′))platinum(II) monoaqua hydrate [Complex 4]			57.3 ± 11.3	41.2 ± 1.6	21.9 ± 17.2	73.4 ± 29.7		−1.23
(Dimethylsulfoxide-κS)(7-isobutyl-5-methyl-1,2,4-triazolo[1,5-a]pyrimidine-κN(3))(malonato- κ^2O,O′)platinum(II) monoaqua hydrate [Complex 2]			57.8 ± 13.5	38.4 ± 1.8	42.6 ± 19	46 ± 40.7		−0.65

Reference: PMC7727669, “Platinum(II) Complexes with Bulky Disubstitute Triazolopyrimidines as Promising Materials for Anticancer Agents” (Materials, 2020)
